This is an account of results in paper PMC9254496, “Crystal structure of mevalonate 3,5-bisphosphate decarboxylase reveals insight into the evolution of decarboxylases in the mevalonate metabolic pathways” (The Journal of Biological Chemistry, 2022).

Series [1] deals with T1, PtoMBD (Picrophilus oshimae, UniProt Q6L1T9, D309N).
T1 construct: gene PTO0478
Nature of the series: radio-TLC activity assay. It is filed as biochemical. To be noted: labelled compound; 1 μM GGPP, 5 mM MgCl2, sodium acetate pH 5.5, 60 °C.

Series [2] addresses T2, PtoMBD (Picrophilus oshimae, UniProt Q6L1T9, D309T).
T2 construct: gene PTO0478
Put plainly: radio-TLC activity assay. The series is classed as biochemical. To be noted: labelled compound; 1 μM GGPP, 5 mM MgCl2, sodium acetate pH 5.5, 60 °C.

The target of series [3] is T3, PtoMBD (Picrophilus oshimae, UniProt Q6L1T9, R218A/R220A).
T3 construct: gene PTO0478
Nature of the series: radio-TLC activity assay. The series is classed as biochemical. Particulars: labelled compound; 1 μM GGPP, 5 mM MgCl2, sodium acetate pH 5.5, 60 °C.

For series [4], the target named is T4, PtoMBD (Picrophilus oshimae, UniProt Q6L1T9).
T4 construct: gene PTO0478
T4 sequence (Q6L1T9 1-349): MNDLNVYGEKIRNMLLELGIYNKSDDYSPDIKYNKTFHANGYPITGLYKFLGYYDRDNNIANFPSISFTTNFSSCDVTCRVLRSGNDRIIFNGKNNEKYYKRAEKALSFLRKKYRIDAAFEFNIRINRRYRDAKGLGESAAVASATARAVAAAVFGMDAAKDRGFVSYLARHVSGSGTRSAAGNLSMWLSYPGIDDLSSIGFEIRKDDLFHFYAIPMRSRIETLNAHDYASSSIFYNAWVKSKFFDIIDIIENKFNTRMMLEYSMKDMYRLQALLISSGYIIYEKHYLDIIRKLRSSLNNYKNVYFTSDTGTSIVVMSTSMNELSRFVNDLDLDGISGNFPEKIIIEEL
Nature of the series: X-ray crystal structure, […] Å. It is filed as binding. To be noted: endogenous E. coli ligand, identity assumed from density (oleic acid fitted), low occupancy, subunit A only; cavity overlapping ATP site of DMD.

Series [5] concerns the molecule itself. Put plainly: SEC; HiLoad 16/600 Superdex 200 prep grade, 20 mM sodium phosphate pH 7.4, 500 mM NaCl, 0.6 ml/min; calibrated with gel filtration markers. For orientation: Size exclusion chromatography separates by hydrodynamic size, large species first.

T1 sequence (Q6L1T9 whole entry D309N): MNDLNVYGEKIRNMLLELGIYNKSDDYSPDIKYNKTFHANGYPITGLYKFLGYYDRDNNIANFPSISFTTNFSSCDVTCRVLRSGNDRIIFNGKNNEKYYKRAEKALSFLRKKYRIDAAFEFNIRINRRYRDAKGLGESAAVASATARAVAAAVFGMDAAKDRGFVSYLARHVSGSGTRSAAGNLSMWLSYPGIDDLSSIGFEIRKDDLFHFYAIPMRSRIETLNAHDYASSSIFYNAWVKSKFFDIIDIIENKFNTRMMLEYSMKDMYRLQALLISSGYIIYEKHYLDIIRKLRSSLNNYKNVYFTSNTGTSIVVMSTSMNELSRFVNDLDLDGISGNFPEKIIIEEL
T2 sequence (Q6L1T9 whole entry D309T): as the sequence (Q6L1T9 whole entry D309N) above, with N309T counted along it
T3 sequence (Q6L1T9 whole entry R218A/R220A): as the sequence (Q6L1T9 whole entry D309N) above, with R218A, R220A, N309D counted along it

`C[C@@](CCOP(=O)(O)O)(CC(=O)O)OP(=O)(O)O` [MVA3,5BP]: the MBD activity result was “mutants D309T and D309N leads to the complete loss of MBD activity” at PtoMBD [1]; “mutants D309T and D309N leads to the complete loss of MBD activity” at PtoMBD [2]; “the R218A/R220A double mutant was as active as the WT” at PtoMBD [3].

For the molecule `CCCCCCCC/C=C\CCCCCCCC(=O)O` [OLA], the “X-ray crystal structure, 2.2 Å” value at PtoMBD [4] was “Oleic acid (OLA) fitted well in the electron density”.

B1: Picrophilus torridus mevalonate 3,5-bisphosphate decarboxylase (enzyme)
chain: T4 sequence (Q6L1T9 1-349)
notes: Mevalonate 3,5-bisphosphate decarboxylase of Picrophilus torridus, gene pto0478; calculated mass of the tagged protein 42,186 Da; also called PtoMBD; MBD; source: E. coli BL21(DE3), pET28a(+), purified (heat treatment, Ni-NTA, HP-Q for crystallization; heat treatment and Ni-NTA only for size-exclusion chromatography); not shown: polyhistidine, N-terminal, kept
On to B1, for which, in series [5], the “stoichiometry N” value amounted to 2.

In general, stoichiometry N refers to a count of units in the complex or per binding partner.
